Data: patent publication US10172825B2, “Pharmacological treatment of cognitive impairment” (priority 2006, dated 2019)
“Also recorded” adds a separate entry of the source. Where two headings read alike, the source gives them in different places.

Tests used:
[1] = tested on: children with Down Syndrome; conditions: children with Down Syndrome (Cocchi 1985); cited from earlier work
[2] = cited from earlier work
Ts65Dn mice [3] = experiment: Hippocampal LTP after chronic drug administration; type: in vivo, mouse; conditions: after chronic once a day administration
Source text: It is shown that chronic (but not acute) once a day drug administration in Ts65Dn mice was able to normalize cognitive performance in the novel object recognition and spontaneous alteration tasks, and to rescue hippocampal LTP (see also Fernandez et al. (2007) Nat. Neurosci. 10, 411-413, herein specifically incorporated by reference).

Ts65Dn mice [4] = experiment: Two-object based object recognition task; type: in vivo, mouse; conditions: for Persistence of cognitive improvement after drug treatment, summary statement: after cessation of chronic treatment; for Object recognition memory, summary statement: chronic administration
Source text: The object recognition task, a behavioral assay not requiring explicit rule learning or prolonged training, is based on the innate tendency of mice to differentially explore novel objects over familiar ones. Animals are submitted to daily handling sessions and are given an opportunity to habituate to a black acrylic, boxed enclosure, where they are exposed to two different objects during a 15-min training session. […] All are generally consistent in height and volume, and are symmetrical on a horizontal plane. They are set in two corners of the apparatus, positioned across from one another along its diameter. Subsequently, a 15-min. testing session is conducted 24 h after training. Here, the mice are presented with the object they had explored the previous day, and a new item (the objects being alternatively positioned in one corner or another in a balanced fashion).
Memory is operationally defined as the proportion of time animals spend investigating the novel object minus the proportion spent investigating the familiar one (Discrimination Index, DI=[Novel Object Exploration Time/Total Exploration Time−Familiar Object Exploration Time/Total Exploration Time]×100), where exploration constitutes any investigative behavior (i.e., head orientation, sniffing) or deliberate contact (i.e. rearing, licking) that occurs with each object. Behavioral trials are recorded by a tripod-mounted digital camera. Importantly, the object recognition task can be used repeatedly to evaluate rodent memory across time, and across various drug treatment regiments. Mice are trained and tested once per week, each experimental session separated by a 1-week interval, and are serially presented with new sets of objects. In this scheme, each mouse is considered a naïve subject, and each week's performance is considered an independent observation. Finally, all behavioral data are analyzed by Student's unpaired t tests.
Moreover, learning performance in the test is not confounded by task aversiveness, a variable common in avoidance paradigms, in food-motivated tasks, and in the Morris water maze (MWM). […] Thus, object recognition is an appropriate rodent cognitive task to assess Ts65Dn learning and memory deficits, and the mitigation of these deficits with pharmacological treatment.
The present experiment was carried out in a longitudinal, cross-over fashion, submitting four cohorts of WT and Ts65Dn experiment al pairs to a 4-week testing schedule. […] Note that untreated WT and Ts65Dn pairs had been previously run in order to validate the 2-object recognition test. […] N values reflect the number of observations (repetitions) per treatment. DI values are expressed as mean±SEM.
The animals were randomly assigned to groups receiving daily servings of chocolate milk or Metrazol (3 mg/kg), and were submitted to two repetitions of object recognition testing. For the purposes of drug delivery, all mice were conditioned to drinking chocolate milk in their home cages and then in cylindrical feeding tubes for 4 days. Subsequent to this conditioning, they were placed daily into the feeding tubes, and presented with small eppendorf caps of milk or a milk-Metrazol cocktail. The milk solutions were typically consumed within 10 min, after which the mice were returned to their home cages. In the current experiment, two cohorts of WT and Ts65Dn mice were submitted to a twoweek testing schedule. […] N values reflect the number of observations (repetitions) per treatment. DI values are expressed as mean±SEM.

rats and mice = conditions: acute post-training, peripheral injection or oral intake; cited from earlier work
Ts65Dn mice [5] = experiment: Spontaneous holeboard task; type: in vivo, mouse
Source text: One cohort of WT and Ts65Dn mice, used to determine the effects of chronic Metrazol on Ts65Dn object recognition performance, were submitted to a spontaneous holeboard task approximately 1 month after the end of Metrazol treatment and object recognition testing. Here, milk- and drug-treated animals (now 5.0 months of age) were habituated to Med Associates open field activity monitors (27.9 cm×27.9 cm) (FIGS. 7b and 7c), and then evaluated for holeboard exploration during a 7-min session. Please note that 2 rounds of holeboard testing were conducted during the light phase of the light/dark cycle, and were separated by a 1-week interval. […] N values reflect the number of observations (repetitions) per treatment. Values are expressed as mean±SEM.

[6] = cited from earlier work; remark: listed apart in the source
rats [7] = conditions: chronic subcutaneous, approximately 10.0 mg/kg, ~9 months; cited from earlier work
[8] = humans, oral intake of a 80-120 mg dose of ginkgo biloba leaf extract; cited from earlier work
[9] = tested on: hippocampal population spikes; conditions: cited from earlier work
[10] = barbital-induced narcosis; cited from earlier work
rats [11] = conditions: cited from earlier work
rats [12] = conditions: dose selective for α5-containing GABAA receptors; cited from earlier work
Ts65Dn hippocampal LTP = conditions: application of picrotoxin in vitro (Kleschevnikov 2004); cited from earlier work
Ts65Dn mice [13] = experiment: Accelerating rotorod test (motor learning); type: in vivo, mouse; conditions: chronic PTX treatment (FIG. 12)

Compound: CN1C(=O)CN=C(c2ccccc2)c2cc(Cl)ccc21 [diazepam]
- Depression [1]: reducing depression

Compound: C1CCc2nnnn2CC1 [Metrazol, pentamethylenetetrazol]
- Distribution between brain regions ([2]; after intraperitoneal injection, cerebellum, midbrain, cortex): allocated evenly between the 3 major brain divisions
- Time to maximum physiological levels ([2]; after oral intake or systemic injection): 5-10 min
- Blood-brain barrier passage ([2]; in vivo): readily crosses the blood-brain barrier
- Half-life ([2]; in vivo): 1 to 2 h
- Volume of distribution ([2]; in vivo): approximates the volume of total body water
- Post-drug recovery of hippocampal LTP (Ts65Dn mice [3]): post-drug recovery of Ts65Dn cognition and LTP lasting for several months
- Persistence of cognitive improvement after drug treatment, summary statement (Ts65Dn mice [4]; Ts65Dn mice): found to have longevity in its effects for weeks after treatment
- Persistence of cognitive improvement after drug treatment, summary statement (Ts65Dn mice [4]; Ts65Dn mice, listed as PTZ): persistent, post-drug recovery of Ts65Dn cognition
- Object recognition memory, summary statement (Ts65Dn mice [4]; Ts65Dn mice): restore Ts65Dn object recognition performance
- Discrimination Index (DI), object recognition memory (Ts65Dn mice [4]; Ts65Dn mice, daily oral Metrazol 3 mg/kg in milk, compared with Ts65Dn mice given milk alone (p<0.03)): significantly higher than Ts65Dn mice administered milk alone
- Discrimination Index (DI), object recognition memory (Ts65Dn mice [4]; Ts65Dn mice, daily oral Metrazol 3 mg/kg in milk, two weeks, compared with WT mice given milk (p<0.16) or Metrazol (p<0.47)): DI scores on par with those of WT mice given milk
- Learning and memory (rats and mice): facilitate normal learning and memory in rats and mice
- Holeboard exploration efficiency (head-dips into previously explored holes) (Ts65Dn mice [5]; Ts65Dn mice about 1 month after end of Metrazol treatment, compared with WT-milk (p>0.07) and WT-Metrazol (p<0.31)): showed similar exploration efficiency
- Holeboard exploration efficiency, summary statement (Ts65Dn mice [5]; Ts65Dn mice after GABA antagonist treatment with Metrazol): rescued and persevere in Ts65Dn mice
- Adverse or toxic effects ([6]; humans, dose range of less than about 100-400 mg/day): little to no adverse or toxic effects
- Electrocardiographic tracings ([6]; patients on Metrazol): no abnormalities in their electrocardiographic tracings
- Temperature curves, respiration, blood sugar, icteric index, pulse rate ([6]; patients on Metrazol): no changes in temperature curves, respiration, blood sugar, icteric index or pulse rate
- Reversal learning in a shock-motivated, spatial maze task (rats [7]): elevates reversal learning
- Signs of neuronal aging in the hippocampus (rats [7]): curtails signs of neuronal aging in the hippocampus

Compound: CC1C(=O)OC2C(O)C34C5CC(C(C)(C)C)C36C(OC(=O)C6O)OC4(C(=O)O5)C12O (stereo not drawn) [Ginkgolide B, ginkgolide B]
- Bioavailability [8]: at least 80%
- Half-life [8]: 6 h

Compound: CC(C)(C)[C@]1(O)C[C@@H]2OC(=O)C[C@@]23C(=O)O[C@@H]2OC(=O)[C@H](O)[C@]213 [bilobalide, Bilobalide]
- Discrimination Index (DI), object recognition memory (Ts65Dn mice [4]; Ts65Dn mice, 30 daily i.p. injections through the 4-week testing schedule): resembled Ts65Dn mice receiving PTX
- Object recognition memory, summary statement (Ts65Dn mice [4]; Ts65Dn mice): restore Ts65Dn object recognition performance
- Bioavailability [8]: 70%
- Half-life [8]: 3 h
- Paired pulse inhibition [9]: decrease paired pulse inhibition
- Amplitude of hippocampal population spikes ([9]; muscimol-dependent manner): significantly increase the amplitude of hippocampal population spikes
- Sleeping time [10]: shorten sleeping time

Compound: CCOC(=O)c1ncn2c1[C@@H]1CCCN1C(=O)c1cc(OC)ccc1-2 [L-655,708]
- Cognition (rats [11]): enhance cognition in rats
- Pro-convulsant effect (rats [12]): not pro-convulsant

Compound: Picrotoxin [PTX]
- Time normal object recognition memory is maintained post-treatment (Ts65Dn mice [4]; PTX-treated Ts65Dn mice after cessation of chronic treatment): at least 2 weeks
- Object recognition performance (Ts65Dn mice [4]; Ts65Dn mice, acute PTX (FIG. 11)): Unable to Reliably Rescue Ts65Dn Performance
- Persistence of cognitive improvement after drug treatment, summary statement (Ts65Dn mice [4]; Ts65Dn mice): maintained post drug treatment
- Object recognition memory, summary statement (Ts65Dn mice [4]; Ts65Dn mice): able to recover Ts65Dn declarative memory
- Object recognition memory, summary statement (Ts65Dn mice [4]; Ts65Dn mice, listed as Picrotoxin): normalizes object recognition memory in Ts65Dn mice
- Object recognition memory, summary statement (Ts65Dn mice [4]; Ts65Dn mice, listed as picrotoxin): normalizes learning of Ts65Dn mice in an object recognition task
- Deficits in Ts65Dn hippocampal LTP (Ts65Dn hippocampal LTP): shown to reverse
- Rotorod performance / motor learning (Ts65Dn mice [13]): does not influence Ts65Dn motor learning; also recorded: does not influence Ts65Dn Rotorod Performance
